Data on 4 molecules can be found in publication PMC6158786 (ACS chemical biology, 2018).

Where a chain is given by its changes, count along the chain named.

What all share (type): biochemical
In experiment [1] the target is T1, human BCO1 (Homo sapiens, UniProt Q9HAY6).
T1 sequence (Q9HAY6 1-547): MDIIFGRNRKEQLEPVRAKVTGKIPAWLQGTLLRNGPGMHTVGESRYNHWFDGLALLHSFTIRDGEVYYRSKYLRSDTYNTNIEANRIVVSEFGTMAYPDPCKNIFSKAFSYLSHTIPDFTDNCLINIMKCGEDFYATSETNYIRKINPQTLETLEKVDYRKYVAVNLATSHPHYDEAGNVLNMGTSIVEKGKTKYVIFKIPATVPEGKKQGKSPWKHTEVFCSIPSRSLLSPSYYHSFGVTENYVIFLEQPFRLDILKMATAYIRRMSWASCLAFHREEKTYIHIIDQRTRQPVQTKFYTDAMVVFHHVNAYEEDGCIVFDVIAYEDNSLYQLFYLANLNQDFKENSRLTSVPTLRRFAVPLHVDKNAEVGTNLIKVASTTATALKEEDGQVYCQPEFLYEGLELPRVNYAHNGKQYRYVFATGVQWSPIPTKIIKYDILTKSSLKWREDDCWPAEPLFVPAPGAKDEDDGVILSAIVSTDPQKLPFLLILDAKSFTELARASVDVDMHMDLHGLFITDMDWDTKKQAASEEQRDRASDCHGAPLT
Kind of experiment: HPLC product formation. The following applies: DMN micelles, pH 7, 30 °C, 12 min.

Experiment [2] has as its target T2, human BCO1 (Homo sapiens, UniProt Q9HAY6, W270F).
T2 sequence (Q9HAY6 1-547 W270F): T1 sequence (Q9HAY6 1-547) with W270F
The experiment is described as follows: HPLC product formation with E. coli protein extract. The following applies: DMN micelles, 30 °C; product all-trans-3-hydroxy-retinal.

The target in experiment [3] is T3, human BCO1 (Homo sapiens, UniProt Q9HAY6, L168G/W270F).
T3 sequence (Q9HAY6 1-547 L168G/W270F): T1 sequence (Q9HAY6 1-547) with L168G, W270F
The description is as above. The conditions noted are these: DMN micelles, 30 °C; product all-trans-3-hydroxy-retinal.

In experiment [4] the target is T1, human BCO1. The experiment is described as follows: inhibition of BC cleavage by E. coli crude extract, HPLC. The following applies: 20 μM BC, 10 μM fenretinide, DMN micelles.

Regarding `CC1=C(/C=C/C(C)=C/C=C/C(C)=C/C=C/C=C(C)/C=C/C=C(C)/C=C/C2=C(C)CCCC2(C)C)C(C)(C)CCC1` [BC, β,β-carotene], the HPLC product formation result at human BCO1 [1] (product all-trans-retinal) is listed as “BCO1 catalyzed the production of all-trans-retinal from BC”.
`CC1=C(/C=C/C(C)=C/C=C/C(C)=C/C=C/C=C(C)/C=C/C=C(C)/C=C/C2=C(C)C[C@@H](O)CC2(C)C)C(C)(C)CCC1` [CX, 3R-β,β-Caroten-3-ol]: the HPLC product formation result at human BCO1 [1] (products all-trans-retinal and 3-hydroxy-retinal) is “all-trans-retinal and all-trans-3-hydroxy-retinal resulting from CX cleavage displayed distinct retention times”.
Consider `CC1=C(/C=C/C(C)=C/C=C/C(C)=C/C=C/C=C(C)/C=C/C=C(C)/C=C/C2=C(C)C[C@@H](O)CC2(C)C)C(C)(C)C[C@H](O)C1` [ZEA, zeaxanthin], for which the “HPLC product formation with E. coli protein extract” value on human BCO1 [2] and on human BCO1 [3] was “mutant BCO1 variants readily converted zeaxanthin to all-trans-3-hydroxy-retinal in repeated assays” each time.
With `CC1=C(/C=C/C(C)=C/C=C/C(C)=C/C(=O)Nc2ccc(O)cc2)C(C)(C)CCC1` [fenretinide], the “inhibition at 10 μM” value against human BCO1 [4] was “fenretinide, a known BCO1 inhibitor, efficiently inhibited the enzymatic activity of BCO1”.
